Test results: ChEMBL document CHEMBL1121451, “Neuroleptic activity in 5-aryltetrahydro-gamma-carbolines” (J Med Chem, 1980)

Legend:
Rattus norvegicus [1] = assay: Tested for neuroleptic activity by measuring antagonism of d-amphetamine sulfate at intraperitoneal dosage of 5 mg/kg, after 5 hours in rat; Range is 3.2-10; type: functional; settings: ip
Rattus norvegicus [2] = assay: Tested for neuroleptic activity by measuring antagonism of d-amphetamine sulfate at intraperitoneal dosage of 5 mg/kg, after 1 hour in rat; Range is 3.2-10; type: functional; settings: ip
Canis familiaris [3] = assay: The ability of compound to prevent the emesis induced by apomorphine (0.1 mg/kg, iv) in dogs at the specified dosage of 2.0 mg/kg (1 N saline); type: functional, Canis lupus familiaris
Rattus norvegicus [4] = assay: Tested for neuroleptic activity by measuring antagonism of d-amphetamine sulfate at intraperitoneal dosage of 5 mg/kg, after 1 hour in rat; Range is 10-32; type: functional; settings: ip
Rattus norvegicus [5] = assay: Tested for neuroleptic activity by measuring antagonism of d-amphetamine sulfate at intraperitoneal dosage of 5 mg/kg, after 5 hours in rat; Range is 10-32; type: functional; settings: ip
Rattus norvegicus [6] = assay: Tested for neuroleptic activity by measuring antagonism of d-amphetamine sulfate at intraperitoneal dosage of 5 mg/kg, after 24 hours in rat; type: functional; settings: ip
Rattus norvegicus [7] = assay: Tested for neuroleptic activity by measuring antagonism of d-amphetamine sulfate at intraperitoneal dosage of 5 mg/kg, after 1 hour in rat; Range is 1.0-3.2; type: functional; settings: ip
Rattus norvegicus [8] = assay: Tested for neuroleptic activity by measuring antagonism of d-amphetamine sulfate at intraperitoneal dosage of 5 mg/kg, after 5 hours in rat; Range is 1.0-3.2; type: functional; settings: ip
Canis familiaris [9] = assay: The ability of compound to prevent the emesis induced by apomorphine (0.1 mg/kg, iv) in dogs at the specified dosage of 3.2 mg/kg (sesame oil); type: functional, Canis lupus familiaris
Rattus norvegicus [10] = assay: Tested for neuroleptic activity by measuring antagonism of d-amphetamine sulfate at intraperitoneal dosage of 5 mg/kg, after 24 hours in rat; Range is 1.0-3.2; type: functional; settings: ip
Rattus norvegicus [11] = assay: Tested for neuroleptic activity by measuring antagonism of d-amphetamine sulfate at intraperitoneal dosage of 5 mg/kg, after 1 hour in rat; Range is 0.1-0.32; type: functional; settings: ip
Rattus norvegicus [12] = assay: Tested for neuroleptic activity by measuring antagonism of d-amphetamine sulfate at intraperitoneal dosage of 5 mg/kg, after 1 hour in rat; Range is 0.32-1.0; type: functional; settings: ip
Rattus norvegicus [13] = assay: Tested for neuroleptic activity by measuring antagonism of d-amphetamine sulfate at intraperitoneal dosage of 5 mg/kg, after 24 hours in rat; Range is 3.2-10; type: functional; settings: ip
Rattus norvegicus [14] = assay: Tested for neuroleptic activity by measuring antagonism of d-amphetamine sulfate at intraperitoneal dosage of 5 mg/kg, after 5 hours in rat; Range is 0.32-1.0; type: functional; settings: ip
Rattus norvegicus [15] = assay: Tested for neuroleptic activity by measuring antagonism of d-amphetamine sulfate at intraperitoneal dosage of 5 mg/kg, after 1 hour in rat; Range is 32-56; type: functional; settings: ip

Cl.O=C(CCCN1CCc2c(c3cc(F)ccc3n2-c2ccc(F)cc2)C1)c1ccc(Cl)cc1
ED50 (Rattus norvegicus [1]): 3.2 mg/kg | ED50 (Rattus norvegicus [2]): 3.2 mg/kg

CCCCCCCCCC(=O)OC(CCCN1CCc2c(c3cc(F)ccc3n2-c2ccc(F)cc2)C1)c1ccc(F)cc1.Cl (stereo not drawn)
Protection (Canis familiaris [3]): 0 days

Cl.OC(CCCN1CCc2c(c3cc(F)ccc3n2-c2ccc(C(F)(F)F)cc2)C1)c1ccc(F)cc1 (stereo not drawn)
ED50 (Rattus norvegicus [4]): 10 mg/kg | ED50 (Rattus norvegicus [5]): 10 mg/kg

COc1ccc(C(O)CCCN2CCc3c(c4cc(F)ccc4n3-c3ccc(F)cc3)C2)cc1.Cl (stereo not drawn)
ED50 (Rattus norvegicus [6]): > 3.2 mg/kg | ED50 (Rattus norvegicus [7]): 1 mg/kg | ED50 (Rattus norvegicus [8]): 1 mg/kg

CN1CCc2c(c3cc(F)ccc3n2-c2ccccc2)C1.Cl
ED50 (Rattus norvegicus [6]): > 32 mg/kg | ED50 (Rattus norvegicus [2]): 3.2 mg/kg | ED50 (Rattus norvegicus [5]): 10 mg/kg

Cl.O=C(CCCN1CCc2c(c3cc(F)ccc3n2-c2ccc(F)cc2)C1)c1ccccc1
ED50 (Rattus norvegicus [4]): 10 mg/kg | ED50 (Rattus norvegicus [5]): 10 mg/kg

CCCCCCCCCCCCCCCCCC(=O)OC(CCCN1CCc2c(c3cc(F)ccc3n2-c2ccc(F)cc2)C1)c1ccc(F)cc1 (stereo not drawn)
Protection (Canis familiaris [9]): 0 days

CN1CCc2c(c3cc(Cl)ccc3n2-c2ccccc2)C1.Cl
ED50 (Rattus norvegicus [6]): > 32 mg/kg | ED50 (Rattus norvegicus [2]): 3.2 mg/kg | ED50 (Rattus norvegicus [5]): 10 mg/kg

Cn1c2c(c3cc(F)ccc31)CN(CCCC(O)c1ccc(F)cc1)CC2 (stereo not drawn)
ED50 (Rattus norvegicus [4]): 10 mg/kg | ED50 (Rattus norvegicus [6]): > 32 mg/kg | ED50 (Rattus norvegicus [5]): 10 mg/kg

Cl.O=C(CCCN1CCc2c(c3cc(F)ccc3n2-c2ccc(F)cc2)C1)c1ccc(F)cc1
ED50 (Rattus norvegicus [10]): 1 mg/kg | ED50 (Rattus norvegicus [7]): 1 mg/kg | ED50 (Rattus norvegicus [8]): 1 mg/kg

Cl.OC(CCCN1CCc2c(c3cc(F)ccc3n2-c2ccc(F)cc2)C1)c1ccccc1F (stereo not drawn)
ED50 (Rattus norvegicus [11]): 0.1 mg/kg | ED50 (Rattus norvegicus [6]): > 3.2 mg/kg | ED50 (Rattus norvegicus [8]): 1 mg/kg

Cl.OC(CCCN1CCc2c(c3cc(F)ccc3n2-c2ccc(F)cc2)C1)c1ccc(Cl)cc1 (stereo not drawn)
ED50 (Rattus norvegicus [6]): > 3.2 mg/kg | ED50 (Rattus norvegicus [7]): 1 mg/kg | ED50 (Rattus norvegicus [8]): 1 mg/kg

Cl.OC(CCCN1CCc2c(c3cc(F)ccc3n2-c2ccccc2F)C1)c1ccc(F)cc1 (stereo not drawn)
ED50 (Rattus norvegicus [12]): 0.32 mg/kg | ED50 (Rattus norvegicus [6]): > 10 mg/kg | ED50 (Rattus norvegicus [8]): 1 mg/kg

Cl.OC(CCCN1CCc2c(c3cc(F)ccc3n2-c2ccccc2)C1)c1ccc(F)cc1 (stereo not drawn)
ED50 (Rattus norvegicus [13]): 3.2 mg/kg | ED50 (Rattus norvegicus [7]): 1 mg/kg | ED50 (Rattus norvegicus [8]): 1 mg/kg

CC(=O)OC(CCCN1CCc2c(c3cc(F)ccc3n2-c2ccc(F)cc2)C1)c1ccc(F)cc1 (stereo not drawn)
Protection (Canis familiaris [9]): 0 days

Cl.O=C(CCCN1CCc2c(c3cc(F)ccc3n2-c2ccc(F)cc2)C1)c1cccc(F)c1
ED50 (Rattus norvegicus [4]): 10 mg/kg | ED50 (Rattus norvegicus [6]): > 32 mg/kg | ED50 (Rattus norvegicus [5]): 10 mg/kg

Cc1ccc(C(O)CCCN2CCc3c(c4cc(F)ccc4n3-c3ccc(F)cc3)C2)cc1.Cl (stereo not drawn)
ED50 (Rattus norvegicus [11]): 0.1 mg/kg | ED50 (Rattus norvegicus [6]): > 10 mg/kg | ED50 (Rattus norvegicus [8]): 1 mg/kg

Cl.Fc1ccc(CCCCN2CCc3c(c4cc(F)ccc4n3-c3ccc(F)cc3)C2)cc1
ED50 (Rattus norvegicus [12]): 0.32 mg/kg | ED50 (Rattus norvegicus [14]): 0.32 mg/kg | ED50 (Rattus norvegicus [13]): 3.2 mg/kg

Cl.Fc1ccc(/C=C/CCN2CCc3c(c4cc(F)ccc4n3-c3ccc(F)cc3)C2)cc1
ED50 (Rattus norvegicus [6]): > 3.2 mg/kg | ED50 (Rattus norvegicus [2]): 3.2 mg/kg | ED50 (Rattus norvegicus [8]): 1 mg/kg

O=C(CCCN1CCc2[nH]c3ccc(F)cc3c2C1)c1ccc(F)cc1
ED50 (Rattus norvegicus [1]): 3.2 mg/kg | ED50 (Rattus norvegicus [6]): > 32 mg/kg | ED50 (Rattus norvegicus [7]): 1 mg/kg

CN1CCc2c(c3cc(Cl)ccc3n2-c2ccc(F)cc2)C1.Cl
ED50 (Rattus norvegicus [1]): 3.2 mg/kg | ED50 (Rattus norvegicus [6]): > 10 mg/kg | ED50 (Rattus norvegicus [7]): 1 mg/kg

Cl.OC(CCCCN1CCc2c(c3cc(F)ccc3n2-c2ccc(F)cc2)C1)c1ccc(F)cc1 (stereo not drawn)
ED50 (Rattus norvegicus [6]): > 3.2 mg/kg | ED50 (Rattus norvegicus [7]): 1 mg/kg | ED50 (Rattus norvegicus [8]): 1 mg/kg

CN1CCc2[nH]c3ccc(Cl)cc3c2C1
ED50 (Rattus norvegicus [15]): 32 mg/kg

CN1CCN(CC/C=C2/c3ccccc3Sc3ccc(S(=O)(=O)N(C)C)cc32)CC1 [THIOTHIXENE]
ED50 (Rattus norvegicus [12]): 0.32 mg/kg | ED50 (Rattus norvegicus [14]): 0.32 mg/kg | ED50 (Rattus norvegicus [6]): > 17.8 mg/kg

CN1CCc2c(c3cc(Cl)ccc3n2C)C1.Cl
ED50 (Rattus norvegicus [15]): 32 mg/kg

CN1CCc2c(c3cc(F)ccc3n2-c2ccc(F)cc2)C1.Cl
ED50 (Rattus norvegicus [1]): 3.2 mg/kg | ED50 (Rattus norvegicus [6]): > 10 mg/kg | ED50 (Rattus norvegicus [7]): 1 mg/kg

Cl.OC(CCCN1CCc2c(c3cc(F)ccc3n2-c2ccc(F)cc2)C1)c1ccccc1 (stereo not drawn)
ED50 (Rattus norvegicus [12]): 0.32 mg/kg | ED50 (Rattus norvegicus [14]): 0.32 mg/kg | ED50 (Rattus norvegicus [6]): > 3.2 mg/kg
